From patent US9145399B2, “Substituted bicyclic triazole derivatives as gamma secretase modulators” (Janssen Pharmaceuticals, Inc., priority 2010, dated 2015) come the findings set out here.

Experiment [1] has as its system Aβtotal. The experiment in a line: Screening for γ-secretase-modulating activity in SKNBE2 cells carrying APP 695 wild type: Aβtotal in cell supernatant (Alphalisa). It counts as cell-based. To be noted: overnight incubation. As to the method: (§1) Pharmacology A) Screening of the Compounds of the Invention for γ-Secretase-Modulating Activity
(§2) Screening was carried out using SKNBE2 cells carrying the APP 695—wild type, grown in Dulbecco's Modified Eagle's Medium/Nutrient mixture F-12 (DMEM/NUT-mix F-12) (HAM) provided by Invitrogen (cat no. 10371-029) containing 5% Serum/Fe supplemented with 1% non-essential amino acids, 1-glutamine 2 mM, Hepes 15 mM, penicillin 50 U/ml (units/ml) en streptomycin 50 μg/ml. Cells were grown to near confluency.
(§3) The screening was performed using a modification of the assay as described in Citron et al (1997) Nature Medicine 3: 67. Briefly, cells were plated in a 384-well plate at 10^4 cells/well in Ultraculture (Lonza, BE12-725F) supplemented with 1% glutamine (Invitrogen, 25030-024), 1% non-essential amino acid (NEAA), penicillin 50 U/ml en streptomycin 50 μg/ml in the presence of test compound at different test concentrations. The cell/compound mixture was incubated overnight at 37° C., 5% CO2. The next day the media were assayed by two sandwich immuno-assays, for Aβ42 and Aβtotal.
(§4) Aβtotal and Aβ42 concentrations were quantified in the cell supernatant using the Aphalisa technology (Perkin Elmer). Alphalisa is a sandwich assay using biotinylated antibody attached to streptavidin coated donorbeads and antibody conjugated to acceptor beads. In the presence of antigen, the beads come into close proximity. The excitation of the donor beads provokes the release of singlet oxygen molecules that trigger a cascade of energy transfer in the acceptor beads, resulting in light emission. To quantify the amount of Aβ42 in the cell supernatant, monoclonal antibody specific to the C-terminus of Aβ42 (JRF/cAβ42/26) was coupled to the receptor beads and biotinylated antibody specific to the N-terminus of Aβ (JRF/AβN/25) was used to react with the donor beads. T quantify the amount of Aβtotal in the cell supernatant, monoclonal antibody specific to the N-terminus of Aβ (JRF/AβN/25) was coupled to the receptor beads and biotinylated antibody specific to the mid region of Aβ (biotinylated 4G8) was used to react with the donor beads.
(§5) To obtain the values reported in Table 3, the data are calculated as percentage of the maximum amount of amyloid Beta 42 measured in the absence of the test compound. The sigmoidal dose response curves were analyzed using non-linear regression analysis with percentage of the control plotted against the log concentration of the compound. A 4-parameter equation was used to determine the IC50.
In general terms: Alpha assays give light when donor and acceptor beads are brought close together.

Experiment [2] concerns Aβ42. The experiment in a line: Screening for γ-secretase-modulating activity in SKNBE2 cells carrying APP 695 wild type: Aβ42 in cell supernatant (Alphalisa). It counts as cell-based. The settings on record: overnight incubation. The protocol:
as §1, §2, §3, §4, §5

The mark [3] stands for this setting: Homo sapiens, SKNBE2, SKNBE2 cells carrying APP 695 wild type.
The mark [4] stands for this setting: SKNBE2 cells carrying APP 695 wild type.

Structures can show the parent of a compound that is named as a salt.

For the compound `COc1cc(Nc2nc3c(-c4ccc(F)cc4C(F)(F)F)cccn3n2)ccc1-n1cnc(C)n1` [Compound 4, 8-[4-fluoro-2-(trifluoromethyl)phenyl]-N-[3-methoxy-4-(3-methyl-1H-1,2,4-triazol-1-yl)phenyl]-[1,2,4]triazolo[1,5-a]pyridin-2-amine], the figures for the IC50 in experiment [1] (Homo sapiens) and in experiment [2] (setting [3]) were greater than 10000 nM and 22 nM, respectively.
For `COc1cc(Nc2nc3n(n2)CCCC3c2ccc(F)cc2)ccc1-n1cnc(C)c1` (stereo not shown) [Compound 5, 8-(4-fluorophenyl)-5,6,7,8-tetrahydro-N-[3-methoxy-4-(4-methyl-1H-imidazol-1-yl)phenyl]-[1,2,4]triazolo[1,5-a]pyridin-2-amine], in that order: greater than 10000 nM and 18 nM.
For `COc1cc(Nc2nc3c(-c4ccc(F)cc4C)nccn3n2)ccc1-n1cnc(C)c1` [Compound 10, 8-(4-fluoro-2-methylphenyl)-N-[3-methoxy-4-(4-methyl-1H-imidazol-1-yl)phenyl]-[1,2,4]triazolo[1,5-a]pyrazin-2-amine], in that order: greater than 10000 nM and 9 nM.
For `COc1nc(Nc2nc3n(n2)CCCC3c2ccc(F)cc2)ccc1-c1ccnc(C)c1` (stereo not shown) [Compound 16, 8-(4-fluorophenyl)-5,6,7,8-tetrahydro-N-(2-methoxy-2′-methyl[3,4′-bipyridin]-6-yl)-[1,2,4]triazolo[1,5-a]pyridin-2-amine], in that order: greater than 10000 nM and 363 nM.
On to `COc1nc(Nc2nc3n(n2)CCCC3c2ccccc2C(F)(F)F)ccc1-n1cnc(C)c1` (stereo not shown) [Compound 17, 5,6,7,8-tetrahydro-N-[6-methoxy-5-(4-methyl-1H-imidazol-1-yl)-2-pyridinyl]-8-[2-(trifluoromethyl)phenyl]-[1,2,4]triazolo[1,5-a]pyridin-2-amine], for which the values for the IC50 in experiment [1] (Homo sapiens) and in experiment [2] (setting [3]) were greater than 10000 nM and 295 nM, respectively.
For `COc1nc(Nc2nc3n(n2)CCCC3c2ccccc2Cl)ccc1-n1cnc(C)c1` (stereo not shown) [Compound 18, 8-(2-chlorophenyl)-5,6,7,8-tetrahydro-N-[6-methoxy-5-(4-methyl-1H-imidazol-1-yl)-2-pyridinyl]-[1,2,4]triazolo[1,5-a]pyridin-2-amine], in that order: greater than 10000 nM and 112 nM.
For `COc1cc(Nc2nc3c(-c4ccc(F)cc4C)cccn3n2)ccc1-n1cnc(C)c1` [Compound 19, 8-(4-fluoro-2-methylphenyl)-N-[3-methoxy-4-(4-methyl-1H-imidazol-1-yl)phenyl]-[1,2,4]triazolo[1,5-a]pyridin-2-amine], in that order: 3720 nM and 4 nM.
For `COc1cc(Nc2nc3cc(-c4ccccc4C(F)(F)F)ccn3n2)ccc1-n1cnc(C)c1` [Compound 21, N-[3-methoxy-4-(4-methyl-1H-imidazol-1-yl)phenyl]-7-[2-(trifluoromethyl)phenyl]-[1,2,4]triazolo[1,5-a]pyridin-2-amine], in that order: greater than 10000 nM and 115 nM.
For the compound `Cc1ncoc1-c1ccc(Nc2nc3c(-c4ccccc4C(F)(F)F)cccn3n2)cc1` [Compound 24, N-[4-(4-methyl-5-oxazolyl)phenyl]-8-[2-(trifluoromethyl)phenyl]-[1,2,4]triazolo[1,5-a]pyridin-2-amine], the IC50 in experiment [1] (Homo sapiens) was greater than 10000 nM; in experiment [2] (setting [3]), 126 nM.
For `COc1cc(Nc2nc3n(n2)CCCC3c2ccccc2Cl)ccc1-n1cnc(C)c1` (stereo not shown) [Compound 27, 8-(2-chlorophenyl)-5,6,7,8-tetrahydro-N-[3-methoxy-4-(4-methyl-1H-imidazol-1-yl)phenyl]-[1,2,4]triazolo[1,5-a]pyridin-2-amine], in that order: 8510 nM and 14 nM.
For `COc1cc(N(C)c2nc3n(n2)CCCC3c2ccccc2C(F)(F)F)ccc1-n1cnc(C)c1` (stereo not shown) [Compound 33, 5,6,7,8-tetrahydro-N-[3-methoxy-4-(4-methyl-1H-imidazol-1-yl)phenyl]-N-methyl-8-[2-(trifluoromethyl)phenyl]-[1,2,4]triazolo[1,5-a]pyridin-2-amine HCl], in that order: greater than 10000 nM and 4470 nM.
Take `COc1cccc(C2CCCn3nc(Nc4ccc(-n5cnc(C)c5)c(OC)c4)nc32)c1` (stereo not shown) [Compound 35, 5,6,7,8-tetrahydro-N-[3-methoxy-4-(4-methyl-1H-imidazol-1-yl)phenyl]-8-(3-methoxyphenyl)-[1,2,4]triazolo[1,5-a]pyridin-2-amine.2HCl.H2O]: the IC50 in experiment [1] is greater than 10000 nM; in experiment [2] (setting [4]), 31 nM.
For the compound `COc1cc(C(=O)Nc2nc3n(n2)CCCC3c2ccc(F)cc2)ccc1-n1cnc(C)c1` (stereo not shown) [Compound 36, N-[8-(4-fluorophenyl)-5,6,7,8-tetrahydro[1,2,4]triazolo[1,5-a]pyridin-2-yl]-3-methoxy-4-(4-methyl-1H-imidazol-1-yl)-benzamide], the IC50 in experiment [1] (Homo sapiens) is greater than 10000 nM; in experiment [2] (setting [3]), 501 nM.
Regarding `COc1cccc(C2CCCn3nc(Nc4ccc(-c5ccnc(C)c5)c(OC)c4)nc32)c1` (stereo not shown) [Compound 40, 5,6,7,8-tetrahydro-N-[3-methoxy-4-(2-methyl-4-pyridinyl)phenyl]-8-(3-methoxyphenyl)-[1,2,4]triazolo[1,5-a]pyridin-2-amine.1.8 HCl.0.9H2O], the IC50 in experiment [1] is greater than 10000 nM; in experiment [2] (setting [4]), 39 nM.
As to `Cc1cc(-c2ccc(Nc3nc4n(n3)CCCC4c3ccccc3C(F)(F)F)cc2)c(C)cn1` (stereo not shown) [Compound 45, N-[4-(2,5-dimethyl-4-pyridinyl)phenyl]-5,6,7,8-tetrahydro-8-[2-(trifluoromethyl)phenyl]-[1,2,4]triazolo[1,5-a]pyridin-2-amine], the 50% inhibitory concentration (IC50) in experiment [1] (Homo sapiens) is greater than 10000 nM; in experiment [2] (setting [3]), 145 nM.
For `COc1cc(Nc2nc3n(n2)CCC(c2ccccc2C(F)(F)F)C3)ccc1-n1cnc(C)c1` (stereo not shown) [Compound 51, 5,6,7,8-tetrahydro-N-[3-methoxy-4-(4-methyl-1H-imidazol-1-yl)phenyl]-7-[2-(trifluoromethyl)phenyl]-[1,2,4]triazolo[1,5-a]pyridin-2-amine], in that order: greater than 10000 nM and 62 nM.
With `COc1cc(Nc2nc3n(n2)CCC(c2ccccc2C(F)(F)F)C3)ccc1-c1ccnc(C)c1` (stereo not shown) [Compound 62, 5,6,7,8-tetrahydro-N-[3-methoxy-4-(2-methyl-4-pyridinyl)phenyl]-7-[2-(trifluoromethyl)phenyl]-[1,2,4]triazolo[1,5-a]pyridin-2-amine HCl], the IC50 in experiment [1] (Homo sapiens) was greater than 10000 nM; in experiment [2] (setting [3]), 123 nM.
For `COc1cc(Nc2nc3c(-c4cc(C(F)(F)F)ccc4F)cccn3n2)ccc1-n1cnc(C)c1` [Compound 63, 8-[2-fluoro-5-(trifluoromethyl)phenyl]-N-[3-methoxy-4-(4-methyl-1H-imidazol-1-yl)phenyl]-[1,2,4]triazolo[1,5-a]pyridin-2-amine], in that order: 8130 nM and 19 nM.
For `COc1cc(NC(=O)c2nc3c(-c4ccccc4Cl)cccn3n2)ccc1-n1cnc(C)c1` [Compound 72, 8-(2-chlorophenyl)-N-[3-methoxy-4-(4-methyl-1H-imidazol-1-yl)phenyl]-[1,2,4]triazolo[1,5-a]pyridine-2-carboxamide], in that order: 4570 nM and 23 nM.
For `COc1cc(Nc2nc3c(-c4ccc(F)cc4)c(C)ccn3n2)ccc1-c1ccnc(C)c1` [Compound 74, 8-(4-fluorophenyl)-N-[3-methoxy-4-(2-methyl-4-pyridinyl)phenyl]-7-methyl-[1,2,4]triazolo[1,5-a]pyridin-2-amine], in that order: 7410 nM and 15 nM.
`Cc1cc(-c2ccc(Nc3nc4n(n3)CCOC4c3ccccc3C(F)(F)F)cc2)ccn1` (stereo not shown) [Compound 85, 5,6-dihydro-N-[4-(2-methyl-4-pyridinyl)phenyl]-8-[2-(trifluoromethyl)phenyl]-8H-[1,2,4]triazolo[5,1-c][1,4]oxazin-2-amine]: the IC50 in experiment [1] (Homo sapiens) was greater than 10000 nM; in experiment [2] (setting [3]), 44 nM.
For `Cc1cc(-c2ccc(Nc3nc4n(n3)CCOC4c3ccccc3C(F)(F)F)cc2F)ccn1` (stereo not shown) [Compound 86, N-[3-fluoro-4-(2-methyl-4-pyridinyl)phenyl]-5,6-dihydro-8-[2-(trifluoromethyl)phenyl]-8H-[1,2,4]triazolo[5,1-c][1,4]oxazin-2-amine], in that order: greater than 10000 nM and 48 nM.
For `Cc1cc(-c2ccc(Nc3nc4n(n3)CCOC4c3ccccc3Cl)cc2F)ccn1` (stereo not shown) [Compound 88, 8-(2-chlorophenyl)-N-[3-fluoro-4-(2-methyl-4-pyridinyl)phenyl]-5,6-dihydro-8H-[1,2,4]triazolo[5,1-c][1,4]oxazin-2-amine], in that order: 9330 nM and 36 nM.

The IC50 is the concentration that gives 50% inhibition. A low value points to greater potency.
